Measured values published in the NIST ThermoML archive (doi:10.1021/acs.jced.5b00444).
Numbers after ± are expanded uncertainties.

Experiment: molar enthalpy of vaporization or sublimation
Conditions: 298 K; Liquid; Chromatographic retention time

molar enthalpy | Compound
26.29 ± 0.239 kcal/mol | CCCCCCCCCCCCCCCCCCCCCC [docosane]
24.833 ± 0.0239 kcal/mol | CCCCCCCCCCCCCCCCCCCC [eicosane]
26.12 ± 0.12 kcal/mol | CCCCCCCCCCCCCCCCCC(=O)OCC [ethyl octadecanoate]
29.16 ± 0.239 kcal/mol | CCCCCCCCCCCCCCCCCCCCCCCCCC [hexacosane]
26.554 ± 0.0239 kcal/mol | CCCCCCCCCCCCCCCCCCCC(=O)OC [methyl eicosanoate]
27.796 ± 0.0239 kcal/mol | CCCCCCCCCCCCCCCCCCCCC(=O)OC [methyl heneicosanoate]
24.331 ± 0.0239 kcal/mol | CCCCCCCCCCCCCCCC(=O)OC [methyl hexadecanoate]
25.789 ± 0.0239 kcal/mol | CCCCCCCCCCCCCCCCCC(=O)OC [methyl octadecanoate]
30.74 ± 0.12 kcal/mol | CCCCCCCCCCCCCCCCCCCCCCCCCCCC [octacosane]
28.466 ± 0.0239 kcal/mol | CCCCCCCCCCCCCCCCCCCCCCCCC [pentacosane]
27.749 ± 0.0239 kcal/mol | CCCCCCCCCCCCCCCCCCCCCCCC [tetracosane]

Compound | molar enthalpy
CCCCOC(=O)c1ccccc1C(=O)OCc1ccccc1 [benzyl butyl 1,2-benzenedioate] | 26.24 ± 0.0478 kcal/mol
CCCCC(CC)COC(=O)c1ccccc1C(=O)OCC(CC)CCCC (configuration not stated) [bis(2-ethylhexyl) 1,2-benzenedicarboxylate] | 27.94 ± 0.0239 kcal/mol
CCCCOC(=O)c1ccccc1C(=O)OCCCC [dibutyl phthalate] | 23.73 ± 0.0239 kcal/mol
CCOC(=O)c1ccccc1C(=O)OCC [diethyl phthalate] | 21.18 ± 0.0239 kcal/mol
COC(=O)c1ccccc1C(=O)OC [dimethyl 1,2-benzenedicarboxylate] | 20.12 ± 0.0239 kcal/mol
CCCCCCCCOC(=O)c1ccccc1C(=O)OCCCCCCCC [dioctyl 1,2-benzenedicarboxylate] | 29.33 ± 0.0478 kcal/mol
